Entries after “also recorded” stand apart in the source; their conditions may differ.
Legend:
IRF5 [1] = experiment: Western blot, myocardial IRF5 expression; assay type: in vivo, mouse; conditions: 4F 1 mg/kg/d, sc
Description: (§1) All experimental procedures and protocols involving mice were reviewed and approved by the Institutional Animal Care and Use Committee (IACUC) of the Medical College of Wisconsin (AUA#512). They also conformed to the rules in the Guiding Principles in the Care and Use of Animals published by the American Physiologic Society and the Guide for the Care and Use of Laboratory Animals published by OLAW. Male Tsk^−/+ and C57Bl/6J mice (6–8 weeks of age) were purchased from Jackson Laboratories (Bar Harbor, ME). Three groups of mice were studied; C57Bl/6J, Tsk^−/+, and Tsk^−/+ mice treated with 4F (1 mg/kg/d, sc) as published previously.
Hearts harvested from C57Bl/6J, Tsk^−/+ and 4F-treated Tsk ^−/+ mice were snap-frozen and stored at −80°C for subsequent analysis. Frozen hearts were pulverized in a stainless steel mortar and pestle bathed in liquid nitrogen. The frozen powder was dissolved and homogenized in lysis buffer [MOPS pH 7.0, 20 mM; EGTA 2 mM; EDTA 5mM; NaF 30 mM; Protease Inhibitor Cocktail (Complete Mini Roche, Roche, Madison WI); Phosphatase Inhibitor Cocktail (Sigma P5726)]. Lysate proteins were quantified using BCA (bicinchoninic acid) reagent (Pierce, Rockford, IL). […] Band densities were analyzed using Image J software (NIH, Bethesda, MD).

IRF5 [2] = experiment: IRF5 positive nuclei, immunofluorescence of heart sections; assay type: in vivo, mouse; conditions: 4F 1 mg/kg/d, sc; Tsk−/+ heart sections, confocal; ratio IRF5 labeled nuclei to total nuclei; p<0.05, n = 3
Description: as §1
Hearts were harvested from mice, flash frozen and imbedded in OCT and cut into 10 µm sections. Frozen sections were fixed for 10 minutes in PBS containing 1% paraformaldehyde. Cell membranes were permeabilized by incubation in PBS containing 0.5% Triton-X for 5 min at room temperature. The sections were washed once in PBS (5 min) and incubated in PBS containing mouse monoclonal anti-IRF5 antibody (Santa Cruz, 1∶50 concentration) for 30 min at 37°C. Unbound anti-IRF5 antibody was washed free from the sections with PBS and the slides incubated with the appropriate Alexa 488-conjugated secondary antibody (Invitrogen, Carlsbad, CA) for 30 min at 37°C. […] Sections were mounted in aqueous mounting media and analyzed by confocal microscopy, [17].

[3] = system: Human umbilical vein endothelial cells; experiment: Cellular uptake of B-4F in endothelial cells; assay type: cell-based; conditions: B-4F 10 and 50 µg/ml; vs unlabeled 4F; 4 hours (method), 3 hours (Figure 6); confocal
Method: Human umbilical vein endothelial cells (EC; Lonza, Walkersville, MD) were incubated in EGM complete media containing 4F or B-4F (10 and 50 µg/ml) for 4 hours. The EC cultures were washed with PBS, fixed in PBS containing 1% paraformaldehyde, and permeabilized with PBS containing 0.5% Triton-X. The permeabilized sections were incubated with fluorescein-conjugated streptavidin (1 µg/ml) for 30 minutes followed by 3 PBS washes. The fixed and fluorescently labeled slides were mounted in aqueous mounting media and sections inspected and analyzed by confocal microscopy.

IRF5 [4] = molecular target: T1, IRF5 (Homo sapiens, UniProt Q13568); experiment: B-4F pulldown assay from EC cytosolic fractions spiked with recombinant IRF5; assay type: binding; conditions: 3 hours at 4°C, SA agarose beads overnight at 4°C; immunoblot
T1 construct: purchased GenScript USA Inc
T1 sequence (Q13568 1-498): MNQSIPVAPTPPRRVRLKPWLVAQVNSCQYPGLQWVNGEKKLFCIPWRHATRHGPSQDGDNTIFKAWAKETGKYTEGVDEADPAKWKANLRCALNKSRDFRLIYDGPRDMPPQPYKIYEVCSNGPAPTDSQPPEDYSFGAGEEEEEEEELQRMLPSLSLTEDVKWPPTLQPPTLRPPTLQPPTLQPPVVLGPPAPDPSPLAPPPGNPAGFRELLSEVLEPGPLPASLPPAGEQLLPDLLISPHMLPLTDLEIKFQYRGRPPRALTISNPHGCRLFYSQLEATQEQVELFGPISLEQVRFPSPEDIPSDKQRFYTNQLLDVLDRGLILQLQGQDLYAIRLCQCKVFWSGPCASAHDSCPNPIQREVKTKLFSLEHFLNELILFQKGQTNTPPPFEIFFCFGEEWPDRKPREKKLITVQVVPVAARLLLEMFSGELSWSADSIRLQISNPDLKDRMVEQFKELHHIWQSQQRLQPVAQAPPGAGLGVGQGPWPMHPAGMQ
Method: B-4F Pulldown Assays: To determine whether 4F interacts with IRF5 in the presence of cystosol proteins, we performed 4F pulldown assays on EC cytosolic fractions spiked with recombinant IRF5. Briefly, cytosolic EC fractions were precleared with SA agarose beads (Cat#15942-050, Invitrogen) for 30 minutes at 4°C. IRF5 interactions were enhanced by adding recombinant IRF5 (2% wt/vol, Genscript USA Inc.) to the endothelial cytosolic fractions. 4F and B-4F were added to the cytosolic fractions and incubated for 3 hours at 4°C. SA agarose beads were added and the samples mixed end-over-end overnight at 4°C. The following day the SA agarose beads were isolated by centrifugation. The proteins associated with B-4F were released from the beads with Laemmli buffer and separated by SDS-PAGE (4–15%) as above. IRF5 levels in the pulldown samples were determined by autoradiography of immunoblots as above.

proinflammatory HDL = conditions: cited from earlier work
Description: Scleroderma is an autoimmune disease that is characterized by marked increases in fibrosis of the skin and internal organs in conjunction with enhanced apoptosis. The tight skin (Tsk^−/+) mouse is a murine model of systemic scleroderma that replicates many of the features observed in patients suffering from this disease.

Ac-DWFKAFYDKVAEKFKEAF-NH2 [4F]
reduction of IRF5 in Tsk−/+ hearts (band density) (IRF5 [1]; 6 weeks, vs untreated Tsk−/+ hearts): 78% | myocardial IRF5 expression (in words) (IRF5 [1]; 6–8 weeks, Tsk−/+ hearts): decrease IRF5 in Tsk^−/+ hearts; also recorded: markedly decreased IRF5 expression in Tsk^−/+ hearts; also recorded: markedly decrease IRF5 expression in Tsk^−/+ myocardium; also recorded: decreases myocardial expression of IRF5; also recorded: decreases IRF5 levels and activation in the Tsk^−/+ mouse hearts | IRF5 nuclear localization / IRF5 positive nuclei (IRF5 [2]): decreased both measurements in Tsk^−/+ hearts; also recorded: marked decreases in IRF-5 nuclear localization; also recorded: significantly more nuclear labeling in Tsk^−/+ hearts compared to C57BL/6J hearts and hearts from Tsk^−/+ mice treated with 4F; also recorded: decrease IRF5 expression, activation, nuclear translocation | uptake into EC (in words) [3]: enters EC in a concentration-dependent fashion | association with IRF5 in presence of EC cytosolic proteins (in words) (IRF5 [4]): strong enough to pull down IRF5 from a mixture of endothelial cell cytosolic proteins; also recorded: this interaction exists even in the presence of EC cytosolic proteins | proinflammatory HDL levels (proinflammatory HDL): decrease proinflammatory HDL levels

— paper PMC3522636, “4F Decreases IRF5 Expression and Activation in Hearts of Tight Skin Mice” (PLoS ONE, 2012)
